{
  "source": "patent US11312727B1",
  "about": "“Macrocyclic flu endonuclease inhibitors” (Janssen BioPharma, Inc., priority 2018, dated 2022)",
  "key": {"[1]": {"tested_on": "Influenza strain A549 A/WSN/33 (H1N1)", "test": "microbe, parasite or virus in culture", "type": "cell-based", "conditions": "Influenza A virus, A549, 20 h, A549 cells, influenza A/WSN/33 (H1N1), 20 hours incubation; read-out: A549_A(H1N1) EC50"}, "[2]": {"test": "in vitro", "conditions": "human, CC50, uninfected A549 cells, CellTiter-Glo"}},
  "data": [
    {"smiles": "O=C1c2c(O)c(=O)ccn2N2CN1C/C=C\\COc1c(OC(F)(F)F)cccc1[C@H]2c1ccccc1", "note": "(single isomer, unassigned) [Compound 134A, (18*R,Z)-12-hydroxy-18-phenyl-4-(trifluoromethoxy)-6,9-dihydro-18H-10,17-methanobenzo[b]pyrido[1,2-f][1]oxa[5,6,9]triazacyclotridecine-11,13-dione]", "values": [
      {"measurement": "EC50", "setting": "[1]", "result": 69.3, "unit": "nM"},
      {"measurement": "CC50", "setting": "[2]", "result": "> 200", "unit": "nM"}
    ]},
    {"smiles": "O=C1c2c(O)c(=O)ccn2N2CN1C/C=C\\COc1c(OC(F)(F)F)cccc1[C@@H]2c1ccccc1", "note": "(single isomer, unassigned) [Compound 134B, (18*S,Z)-12-hydroxy-18-phenyl-4-(trifluoromethoxy)-6,9-dihydro-18H-10,17-methanobenzo[b]pyrido[1,2-f][1]oxa[5,6,9]triazacyclotridecine-11,13-dione]", "values": [
      {"measurement": "EC50", "setting": "[1]", "result": "> 100", "unit": "nM"},
      {"measurement": "CC50", "setting": "[2]", "result": "> 200", "unit": "nM"}
    ]},
    {"smiles": "Cc1ccc2c(c1F)OC/C=C\\CN1CN([C@@H]2c2ccccc2)n2ccc(=O)c(O)c2C1=O", "note": "(single isomer, unassigned) [Compound 135A, (18*R,Z)-4-fluoro-12-hydroxy-3-methyl-18-phenyl-6,9-dihydro-18H-10,17-methanobenzo[b]pyrido[1,2-f][1]oxa[5,6,9]triazacyclotridecine-11,13-dione]", "values": [
      {"measurement": "EC50", "setting": "[1]", "result": 7.3, "unit": "nM"},
      {"measurement": "CC50", "setting": "[2]", "result": "> 200", "unit": "nM"}
    ]},
    {"smiles": "Cc1ccc2c(c1F)OC/C=C\\CN1CN([C@H]2c2ccccc2)n2ccc(=O)c(O)c2C1=O", "note": "(single isomer, unassigned) [Compound 135B, (18*S,Z)-4-fluoro-12-hydroxy-3-methyl-18-phenyl-6,9-dihydro-18H-10,17-methanobenzo[b]pyrido[1,2-f][1]oxa[5,6,9]triazacyclotridecine-11,13-dione]", "values": [
      {"measurement": "EC50", "setting": "[1]", "result": "> 100", "unit": "nM"},
      {"measurement": "CC50", "setting": "[2]", "result": "> 200", "unit": "nM"}
    ]},
    {"smiles": "O=C1c2c(O)c(=O)ccn2N2CN1C/C=C\\COc1c(ccc(F)c1F)[C@H]2c1ccccc1C1CC1", "note": "(single isomer, unassigned) [Compound 136A, (18*R,*Z)-18-(2-cyclopropylphenyl)-3,4-difluoro-12-hydroxy-6,9-dihydro-18H-10,17-methanobenzo[b]pyrido[1,2-f][1]oxa[5,6,9]triazacyclotridecine-11,13-dione]", "values": [
      {"measurement": "EC50", "setting": "[1]", "result": 6.3, "unit": "nM"},
      {"measurement": "CC50", "setting": "[2]", "result": "> 200", "unit": "nM"}
    ]},
    {"smiles": "O=C1c2c(O)c(=O)ccn2N2CN1C/C=C\\COc1c(ccc(F)c1F)[C@@H]2c1ccccc1C1CC1", "note": "(single isomer, unassigned) [Compound 136B, (18*S,*Z)-18-(2-cyclopropylphenyl)-3,4-difluoro-12-hydroxy-6,9-dihydro-18H-10,17-methanobenzo[b]pyrido[1,2-f][1]oxa[5,6,9]triazacyclotridecine-11,13-dione]", "values": [
      {"measurement": "EC50", "setting": "[1]", "result": "> 100", "unit": "nM"},
      {"measurement": "CC50", "setting": "[2]", "result": "> 200", "unit": "nM"}
    ]},
    {"smiles": "O=C1c2c(O)c(=O)ccn2N2CN1CC/C=C/COc1cccc3c1[C@@H]2c1cccc(F)c1SC3", "note": "(single isomer, unassigned) [Compound 137A, (1*R,13*E)-25-fluoro-7-hydroxy-16-oxa-23-thia-2,3,10-triazahexacyclo[15.12.1.12,10.03,8.021,30.024,29]hentriaconta-4,7,13,17,19,21(30),24(29),25,27-nonaene-6,9-dione]", "values": [
      {"measurement": "EC50", "setting": "[1]", "result": "> 100", "unit": "nM"},
      {"measurement": "CC50", "setting": "[2]", "result": "> 200", "unit": "nM"}
    ]},
    {"smiles": "O=C1c2c(O)c(=O)ccn2N2CN1CC/C=C/COc1cccc3c1[C@H]2c1cccc(F)c1SC3", "note": "(single isomer, unassigned) [Compound 137B, (1*S,13*E)-25-fluoro-7-hydroxy-16-oxa-23-thia-2,3,10-triazahexacyclo[15.12.1.12,10.03,8.021,30.024,29]hentriaconta-4,7,13,17,19,21(30),24(29),25,27-nonaene-6,9-dione]", "values": [
      {"measurement": "EC50", "setting": "[1]", "result": 5.3, "unit": "nM"},
      {"measurement": "CC50", "setting": "[2]", "result": "> 200", "unit": "nM"}
    ]},
    {"smiles": "C[C@H]1/C=C\\COc2cccc3c2[C@@H](c2ccccc2SC3)N2CN1C(=O)c1c(O)c(=O)ccn12", "note": "(single isomer, unassigned) [Compound 138AA, (13*S,21a*S,Z)-16-hydroxy-13-methyl-6,10,13,21a-tetrahydro-7,8-(epiprop[1]en[1]yl[3]ylidene)-14,21-methanobenzo[6,7]thiepino[4,5-c]pyrido[1,2-f][1]oxa[5,6,9]triazacyclotridecine-15,17-dione]", "values": [
      {"measurement": "EC50", "setting": "[1]", "result": 0.8, "unit": "nM"},
      {"measurement": "CC50", "setting": "[2]", "result": "> 50", "unit": "nM"}
    ]},
    {"smiles": "C[C@@H]1/C=C\\COc2cccc3c2[C@@H](c2ccccc2SC3)N2CN1C(=O)c1c(O)c(=O)ccn12", "note": "(single isomer, unassigned) [Compound 138AB, (13*R,21a*S,Z)-16-hydroxy-13-methyl-6,10,13,21a-tetrahydro-7,8-(epiprop[1]en[1]yl[3]ylidene)-14,21-methanobenzo[6,7]thiepino[4,5-c]pyrido[1,2-f][1]oxa[5,6,9]triazacyclotridecine-15,17-dione]", "values": [
      {"measurement": "EC50", "setting": "[1]", "result": 1.5, "unit": "nM"},
      {"measurement": "CC50", "setting": "[2]", "result": "> 50", "unit": "nM"}
    ]},
    {"smiles": "C[C@@H]1/C=C\\COc2cccc3c2[C@H](c2ccccc2SC3)N2CN1C(=O)c1c(O)c(=O)ccn12", "note": "(single isomer, unassigned) [Compound 138BB, (13*R,21a*R,Z)-16-hydroxy-13-methyl-6,10,13,21a-tetrahydro-7,8-(epiprop[1]en[1]yl[3]ylidene)-14,21-methanobenzo[6,7]thiepino[4,5-c]pyrido[1,2-f][1]oxa[5,6,9]triazacyclotridecine-15,17-dione]", "values": [
      {"measurement": "EC50", "setting": "[1]", "result": "> 100", "unit": "nM"},
      {"measurement": "CC50", "setting": "[2]", "result": "> 200", "unit": "nM"}
    ]},
    {"smiles": "C[C@@H]1/C=C/COc2cccc3c2[C@H](c2ccccc2SC3)N2CN1C(=O)c1c(O)c(=O)ccn12", "note": "(single isomer, unassigned) [Compound 138C, (9*R,17a*R,E)-12-hydroxy-9-methyl-2,6,9,17a-tetrahydro-3,4-(epiprop[1]en[1]yl[3]ylidene)-10,17-methanobenzo[6,7]thiepino[4,5-c]pyrido[1,2-f][1]oxa[5,6,9]triazacyclotridecine-11,13-dione]", "values": [
      {"measurement": "EC50", "setting": "[1]", "result": "> 100", "unit": "nM"},
      {"measurement": "CC50", "setting": "[2]", "result": "> 200", "unit": "nM"}
    ]},
    {"smiles": "C[C@H]1/C=C/COc2cccc3c2[C@@H](c2ccccc2SC3)N2CN1C(=O)c1c(O)c(=O)ccn12", "note": "(single isomer, unassigned) [Compound 138D, (9*S,17a*S,E)-12-hydroxy-9-methyl-2,6,9,17a-tetrahydro-3,4-(epiprop[1]en[1]yl[3]ylidene)-10,17-methanobenzo[6,7]thiepino[4,5-c]pyrido[1,2-f][1]oxa[5,6,9]triazacyclotridecine-11,13-dione]", "values": [
      {"measurement": "EC50", "setting": "[1]", "result": 0.9, "unit": "nM"},
      {"measurement": "CC50", "setting": "[2]", "result": "> 200", "unit": "nM"}
    ]},
    {"smiles": "O=C1c2c(O)c(=O)ccn2N2CN1C[C@H]1C[C@@H]1COc1c(ccc(F)c1F)[C@@H]2c1ccccc1", "note": "(single isomer, unassigned) [Compound 139AA, (1a*S,8*S,17a*S)-4,5-difluoro-14-hydroxy-8-phenyl-1a,2,17,17a-tetrahydro-1H,8H-9,16-methanobenzo[b]cyclopropa[k]pyrido[1,2-f][1]oxa[5,6,9]triazacyclotridecine-13,15-dione]", "values": [
      {"measurement": "EC50", "setting": "[1]", "result": 8320, "unit": "nM"},
      {"measurement": "CC50", "setting": "[2]", "result": 26900, "unit": "nM"}
    ]},
    {"smiles": "O=C1c2c(O)c(=O)ccn2N2CN1C[C@@H]1C[C@H]1COc1c(ccc(F)c1F)[C@@H]2c1ccccc1", "note": "(single isomer, unassigned) [Compound 139AB, (1a*R,8*S,17a*R)-4,5-difluoro-14-hydroxy-8-phenyl-1a,2,17,17a-tetrahydro-1H,8H-9,16-methanobenzo[b]cyclopropa[k]pyrido[1,2-f][1]oxa[5,6,9]triazacyclotridecine-13,15-dione]", "values": [
      {"measurement": "EC50", "setting": "[1]", "result": 4890, "unit": "nM"},
      {"measurement": "CC50", "setting": "[2]", "result": 35900, "unit": "nM"}
    ]},
    {"smiles": "O=C1c2c(O)c(=O)ccn2N2CN1C[C@H]1C[C@@H]1COc1c(ccc(F)c1F)[C@H]2c1ccccc1", "note": "(single isomer, unassigned) [Compound 139BA, (1a*S,8*R,17a*S)-4,5-difluoro-14-hydroxy-8-phenyl-1a,2,17,17a-tetrahydro-1H,8H-9,16-methanobenzo[b]cyclopropa[k]pyrido[1,2-f][1]oxa[5,6,9]triazacyclotridecine-13,15-dione]", "values": [
      {"measurement": "EC50", "setting": "[1]", "result": 44.6, "unit": "nM"},
      {"measurement": "CC50", "setting": "[2]", "result": "> 100", "unit": "nM"}
    ]},
    {"smiles": "O=C1c2c(O)c(=O)ccn2N2CN1C[C@@H]1C[C@H]1COc1c(ccc(F)c1F)[C@H]2c1ccccc1", "note": "(single isomer, unassigned) [Compound 139BB, (1a*R,8*R,17a*R)-4,5-difluoro-14-hydroxy-8-phenyl-1a,2,17,17a-tetrahydro-1H,8H-9,16-methanobenzo[b]cyclopropa[k]pyrido[1,2-f][1]oxa[5,6,9]triazacyclotridecine-13,15-dione]", "values": [
      {"measurement": "EC50", "setting": "[1]", "result": "> 25", "unit": "nM"},
      {"measurement": "CC50", "setting": "[2]", "result": "> 50", "unit": "nM"}
    ]},
    {"smiles": "O=C1c2c(O)c(=O)ccn2N2CN1C/C=C/COc1cc(F)c(F)c3c1[C@@H]2c1ccccc1SC3", "note": "(single isomer, unassigned) [Compound 140A, (17a*R,*E)-24,25-difluoro-12-hydroxy-2,6,9,17a-tetrahydro-3,4-(epiprop[1]en[1]yl[3]ylidene)-10,17-methanobenzo[6,7]thiepino[4,5-c]pyrido[1,2-f][1]oxa[5,6,9]triazacyclotridecine-11,13-dione]", "values": [
      {"measurement": "EC50", "setting": "[1]", "result": 96.3, "unit": "nM"},
      {"measurement": "CC50", "setting": "[2]", "result": 9960, "unit": "nM"}
    ]},
    {"smiles": "O=C1c2c(O)c(=O)ccn2N2CN1C/C=C/COc1cc(F)c(F)c3c1[C@H]2c1ccccc1SC3", "note": "(single isomer, unassigned) [Compound 140B, (17a*S,*E)-24,25-difluoro-12-hydroxy-2,6,9,17a-tetrahydro-3,4-(epiprop[1]en[1]yl[3]ylidene)-10,17-methanobenzo[6,7]thiepino[4,5-c]pyrido[1,2-f][1]oxa[5,6,9]triazacyclotridecine-11,13-dione]", "values": [
      {"measurement": "EC50", "setting": "[1]", "result": 0.3, "unit": "nM"},
      {"measurement": "CC50", "setting": "[2]", "result": "> 50", "unit": "nM"}
    ]},
    {"smiles": "O=C1c2c(O)c(=O)ccn2N2CN1C/C=C\\COc1cc(F)c(F)c3c1[C@@H]2c1ccccc1SC3", "note": "(single isomer, unassigned) [Compound 140C, (21a*R,*Z)-24,25-difluoro-16-hydroxy-6,10,13,21a-tetrahydro-7,8-(epiprop[1]en[1]yl[3]ylidene)-14,21-methanobenzo[6,7]thiepino[4,5-c]pyrido[1,2-f][1]oxa[5,6,9]triazacyclotridecine-15,17-dione]", "values": [
      {"measurement": "EC50", "setting": "[1]", "result": 37.4, "unit": "nM"},
      {"measurement": "CC50", "setting": "[2]", "result": "> 10000", "unit": "nM"}
    ]},
    {"smiles": "O=C1c2c(O)c(=O)ccn2N2CN1C/C=C\\COc1cc(F)c(F)c3c1[C@H]2c1ccccc1SC3", "note": "(single isomer, unassigned) [Compound 140D, (21a*S,*Z)-24,25-difluoro-16-hydroxy-6,10,13,21a-tetrahydro-7,8-(epiprop[1]en[1]yl[3]ylidene)-14,21-methanobenzo[6,7]thiepino[4,5-c]pyrido[1,2-f][1]oxa[5,6,9]triazacyclotridecine-15,17-dione]", "values": [
      {"measurement": "EC50", "setting": "[1]", "result": 1.2, "unit": "nM"},
      {"measurement": "CC50", "setting": "[2]", "result": "> 50", "unit": "nM"}
    ]}
  ]
}
